Among the data in patent US20250215029A1 (Recludix Pharma, Inc., priority 2022, published 2025) are IC50 values, retold here.

Where two headings read alike, the source gives them in different places.

One experiment deals with T1, pY641-STAT6 in PBMC (Homo sapiens, UniProt P42226).
T1 construct: Cryopreserved Peripheral Blood Mononuclear Cells (PBMC) are from AllCells; host or cells: cryopreserved PBMC
T1 sequence (P42226 1-847): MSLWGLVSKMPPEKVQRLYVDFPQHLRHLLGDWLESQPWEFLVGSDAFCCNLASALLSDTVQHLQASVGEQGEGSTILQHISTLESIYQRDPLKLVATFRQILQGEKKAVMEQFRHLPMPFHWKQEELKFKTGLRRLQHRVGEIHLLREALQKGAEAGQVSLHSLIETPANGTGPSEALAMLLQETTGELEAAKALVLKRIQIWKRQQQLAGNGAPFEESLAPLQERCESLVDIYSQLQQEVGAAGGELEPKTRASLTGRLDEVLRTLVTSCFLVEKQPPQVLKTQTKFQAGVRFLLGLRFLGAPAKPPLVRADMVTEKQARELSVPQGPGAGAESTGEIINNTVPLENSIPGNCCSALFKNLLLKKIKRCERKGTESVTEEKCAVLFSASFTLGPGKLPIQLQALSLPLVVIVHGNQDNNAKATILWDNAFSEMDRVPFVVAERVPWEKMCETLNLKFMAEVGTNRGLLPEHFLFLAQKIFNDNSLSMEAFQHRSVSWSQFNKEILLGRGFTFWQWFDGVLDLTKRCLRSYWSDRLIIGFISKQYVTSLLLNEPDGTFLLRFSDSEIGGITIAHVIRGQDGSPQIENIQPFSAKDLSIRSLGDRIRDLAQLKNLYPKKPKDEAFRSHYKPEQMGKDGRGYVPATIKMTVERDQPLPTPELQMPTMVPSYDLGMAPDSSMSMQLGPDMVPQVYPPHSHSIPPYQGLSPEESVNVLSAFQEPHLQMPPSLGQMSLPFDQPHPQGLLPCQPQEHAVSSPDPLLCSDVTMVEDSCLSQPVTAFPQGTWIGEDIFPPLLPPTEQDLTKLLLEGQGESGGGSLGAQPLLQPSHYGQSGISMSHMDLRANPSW
Briefly: MSD-pSTAT-PBMC Assay (pSTAT6, IL-4 stimulated). Type of experiment: cell-based. The conditions noted are these: compound 3 hrs, then 1 ng/mL IL-4 for 10 min. The method in brief:
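PBMC (human, cryopreserved, overnight recovery) + cpd 3 hrs → IL-6 10 ng/mL (STAT3) or IL-4 1 ng/mL (STAT6) ×10 min → lysis with protease/phosphatase inhibitors → MSD capture/phospho detection. IC50, variable slope, DMSO-normalized.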

For another experiment, the target named is T2, pY705-STAT3 in PBMC (Homo sapiens, UniProt P40763).
T2 construct: Cryopreserved Peripheral Blood Mononuclear Cells (PBMC) are from AllCells; host or cells: cryopreserved PBMC
Briefly: MSD-pSTAT-PBMC Assay (pSTAT3, IL-6 stimulated). The experiment is classed as cell-based. The conditions noted are these: compound 3 hrs, then 10 ng/mL IL-6 for 10 min. The method in brief:
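Human PBMCs were pretreated with compound for 3 h, then stimulated with 10 ng/mL IL-6 for 10 min. Lysate pY705-STAT3 was measured by MSD sandwich immunoassay (anti-STAT3 capture) and corrected for unstimulated background. Signal was normalized to DMSO, and IC50 came from variable-slope regression.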

Where [1] appears, read: PBMC, Table 1114, read-out: pSTAT6.
The mark [2] stands for this setting: PBMC, Table 1114, read-out: pSTAT3.
[3] abbreviates: PBMC, Table 115, read-out: STAT3.

T2 sequence (P40763 whole entry): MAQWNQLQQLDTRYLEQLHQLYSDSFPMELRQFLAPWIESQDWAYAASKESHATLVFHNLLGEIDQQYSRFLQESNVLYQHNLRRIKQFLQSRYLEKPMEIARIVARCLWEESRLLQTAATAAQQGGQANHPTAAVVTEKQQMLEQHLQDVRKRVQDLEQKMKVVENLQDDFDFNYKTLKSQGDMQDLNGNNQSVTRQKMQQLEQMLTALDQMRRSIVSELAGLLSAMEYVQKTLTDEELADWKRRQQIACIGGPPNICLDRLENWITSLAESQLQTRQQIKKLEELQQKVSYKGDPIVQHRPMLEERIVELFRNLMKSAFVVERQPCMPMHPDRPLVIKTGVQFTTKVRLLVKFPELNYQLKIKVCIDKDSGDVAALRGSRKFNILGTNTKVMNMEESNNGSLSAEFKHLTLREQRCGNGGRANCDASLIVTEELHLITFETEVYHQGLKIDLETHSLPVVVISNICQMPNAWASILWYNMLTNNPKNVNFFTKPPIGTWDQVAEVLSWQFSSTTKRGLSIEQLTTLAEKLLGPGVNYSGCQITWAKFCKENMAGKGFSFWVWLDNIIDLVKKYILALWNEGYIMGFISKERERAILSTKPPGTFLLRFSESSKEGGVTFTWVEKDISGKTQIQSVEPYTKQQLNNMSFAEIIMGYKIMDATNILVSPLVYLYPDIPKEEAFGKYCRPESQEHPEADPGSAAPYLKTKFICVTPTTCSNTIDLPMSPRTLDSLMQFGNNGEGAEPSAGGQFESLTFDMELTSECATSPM

Consider `CC(C)(C)C(=O)OCOP(=O)(OCOC(=O)C(C)(C)C)C(F)(F)c1ccc2sc(C(=O)N[C@H]3CCCC[C@H]4CC[C@@H](C(=O)N5CC(F)(c6ccccc6)C5)N4C3=O)cc2c1` [Compound 174, (((difluoro(2-(((3S,6S,10aS)-3-(3-fluoro-3-phenylazetidine-1-carbonyl)-5-oxodecahydropyrrolo [1,2-a]azocin-6-yl)carbamoyl)benzo[b]thiophen-5-yl)methyl)phosphoryl)bis(oxy)) bis(methylene) bis(2,2-dimethylpropanoate)], for which the values for the IC50 at pY641-STAT6 in PBMC (setting [1]) and on pY705-STAT3 in PBMC (setting [2]) were 0.1 to 1 µM and under 0.1 µM, respectively.

Consider `CC(C)CC(=O)SCCOP(=O)(OCCSC(=O)CC(C)C)C(F)(F)c1ccc2sc(C(=O)N[C@H]3C[C@@H](O)CC[C@H]4CC[C@@H](C(=O)N5C[C@@H](C#N)[C@H](c6ccccc6)C5)N4C3=O)cc2c1` (single isomer, unassigned) [Compound 135, S,S′-(((((2-(((3S,6S,8S,10aR)-3-((3S,4R or 3R,4S)-3-cyano-4-phenylpyrrolidine-1-carbonyl)-8-hydroxy-5-oxodecahydro-pyrrolo[1,2-a]azocin-6-yl)carbamoyl)benzo[b]thiophen-5-yl)difluoromethyl)phosphoryl)bis(oxy))bis (ethane-2,1-diyl)) bis(3-methylbutane-thioate)], for which the results for the IC50 on pY641-STAT6 in PBMC (setting [1]) and on pY705-STAT3 in PBMC (setting [2]) were 0.1 to 1 µM and over 3 µM, respectively.

Take `CC(C)(C)C(=O)OCOP(=O)(OCOC(=O)C(C)(C)C)C(F)(F)c1ccc2ccc(C(=O)N[C@H]3CCCC[C@H]4CC[C@@H](C(=O)N5C[C@H](c6ccccc6)[C@@H](C#N)C5)N4C3=O)cc2c1` (relative stereo) [Compound 194, ((((7-(((3S,6S,10aS)-3-(rel-(trans)-3-cyano-4-phenyl-pyrrolidine-1-carbonyl)-5-oxodecahydro-pyrrolo[1,2-a]azocin-6-yl)carbamoyl)naphthalen-2-yl)difluoro-methyl)phos-phoryl)bis(oxy)) bis(methylene) bis(2,2-dimethyl-propanoate)]: the results for the IC50 at pY641-STAT6 in PBMC (setting [1]) and on pY705-STAT3 in PBMC (setting [2]) were under 0.1 µM and 0.1 to 1 µM, respectively.

Regarding `CC(C)(C)C(=O)OCOP(=O)(OCOC(=O)C(C)(C)C)C(F)(F)c1ccc2sc(C(=O)N[C@H]3CCCCC4CC[C@@H](C(=O)N5C[C@H](C6CCCCC6)[C@@H](C#N)C5)N4C3=O)cc2c1` (relative stereo) [Compound 143, ((((2-(((3S,6S,10aS)-3-(rel-(trans)-3-cyano-4-cyclohexyl-pyrrolidine-1-carbonyl)-5-oxodecahydro-pyrrolo[1,2-a]azocin-6-yl)carbamoyl)benzo[b]thiophen-5-yl)difluoromethyl)phosphoryl)bis (oxy))bis (methylene) bis (2,2-dimethyl-propanaote)], the IC50 on pY641-STAT6 in PBMC (setting [1]) is under 0.1 µM; at pY705-STAT3 in PBMC (setting [2]), 0.1 to 1 µM.

As to `CC(C)OC(=O)OCOP(=O)(OCOC(=O)OC(C)C)C(F)(F)c1ccc2ccc(C(=O)N[C@H]3CCCC[C@H]4CC[C@@H](C(=O)N5C[C@@H](C#N)[C@H](c6cc[nH]c(=O)c6)C5)N4C3=O)cc2c1` (single isomer, unassigned) [Compound 1088], the IC50 on pY641-STAT6 in PBMC (PBMC, Table 115, read-out: STAT6) is under 0.1 µM; at pY705-STAT3 in PBMC (setting [3]) it was 1 to 3 µM.

Take `CCCOC(=O)[C@H](C)NP(=O)(Oc1ccccc1)C(F)c1ccc2sc(C(=O)N[C@H]3CCC[C@H]4CC[C@@H](C(=O)N5CC(c6cnccc6F)C5)N4C3=O)cc2c1` (stereo partly drawn) [Compound 943, propyl ((fluoro(2-(((3S,6S,9aS)-3-(3-(4-fluoropyridin-3-yl)azetidine-1-carbonyl)-5-oxooctahydro-1H-pyrrolo[1,2-a]azepin-6-yl)carbamoyl)benzo [b]thiophen-5-yl)methyl)(phenoxy)phosphoryl)-L-alaninate]: the IC50 was over 3 µM on pY641-STAT6 in PBMC (STAT6, PBMC, Table 115) and under 0.1 µM on pY705-STAT3 in PBMC (setting [3]).

With `CC(C)CC(=O)SCCOP(=O)(Oc1cccc(C#N)c1)C(F)(F)c1ccc2sc(C(=O)N[C@H]3CCCC[C@H]4CC[C@@H](C(=O)N5C[C@H](c6ccccc6)[C@@H](C#N)C5)N4C3=O)cc2c1` (single isomer, unassigned) [Compound 1007], the IC50 at pY641-STAT6 in PBMC (STAT6, PBMC, Table 115) is 0.1 to 1 µM; against pY705-STAT3 in PBMC (STAT3, PBMC, Table 115), over 3 µM.

Regarding `CC(C)(C)C(=O)SCCOP(=O)(OCCSC(=O)C(C)(C)C)C(F)(F)c1ccc2sc(C(=O)N[C@H]3CCCC[C@H]4CC[C@@H](C(=O)N5CC(c6c[nH]cn6)C5)N4C3=O)cc2c1` [Compound 182, S,S′-(((3S,6S,10aS)-3-(3-(1H-imidazol-4-yl)azetidine-1-carbonyl)-5-oxodecahydropyrrolo [1,2-a]azocin-6-yl)carbamoyl)benzo[b] thiophen-5-yl) difluoromethyl) phosphoryl)bis(oxy)) bis(ethane-2,1-diyl)) bis(2,2-dimethylpropanethioate)], the IC50 on pY641-STAT6 in PBMC (setting [1]) is 1 to 3 µM; at pY705-STAT3 in PBMC (setting [2]) it was under 0.1 µM.

For the molecule `CC(C)CC(=O)SCCOP(=O)(OCCSC(=O)CC(C)C)C(F)(F)c1ccc2ccc(C(=O)N[C@H]3CCCC[C@H]4CC[C@@H](C(=O)N5CCC(c6cc[nH]c(=O)c6)C5)N4C3=O)cc2c1` (stereo partly drawn) [Compound 160, S,S′-((((difluoro(7-(((3S,6S,10aS)-5-oxo-3-(3-(2-oxo-1,2-dihydropyridin-4-yl)pyrrolidine-1-carbonyl)decahydropyrrolo [1,2-a]azocin-6-yl)carbamoyl)naphthalen-2-yl)methyl)phosphoryl)bis(oxy))bis(ethane-2,1-diyl)) bis(3-methylbutane thioate)], the IC50 at pY641-STAT6 in PBMC (setting [1]) and on pY705-STAT3 in PBMC (setting [2]) was under 0.1 µM in each case.

Take `CCCOC(=O)[C@H](C)NP(=O)(Oc1ccccc1)[C@H](F)c1ccc2sc(C(=O)N[C@H]3CCCC[C@H]4CC[C@@H](C(=O)N5C[C@H](c6ccccc6)[C@@H](C#N)C56CC6)N4C3=O)cc2c1` (stereo partly drawn) [Compound 485, propyl (((S)-(2-(((3S,6S,10aS)-3-((6S,7R)-7-cyano-6-phenyl-4-azaspiro[2.4]heptane-4-carbonyl)-5-oxodecahydropyrrolo [1,2-a]azocin-6-yl)carbamoyl)benzo [b]thiophen-5-yl)fluoromethyl) (phenoxy)phosphoryl)-L-alaninate]: the IC50 was under 0.1 µM on pY641-STAT6 in PBMC (STAT6, PBMC, Table 115) and over 3 µM at pY705-STAT3 in PBMC (setting [3]).

On to `CC(C)(C)C(=O)SCCOP(=O)(OCCSC(=O)C(C)(C)C)C(F)(F)c1ccc2sc(C(=O)N[C@H]3CCC4(CC4)C[C@H]4CC[C@@H](C(=O)N5CC(c6cccnc6)C5)N4C3=O)cc2c1` [Compound 132, S,S′-((((difluoro(2-(((3′S,6′S,10a′R)-5′-oxo-3′-(3-(pyridin-3-yl)azetidine-1-carbonyl)octahydro-1′H-spiro [cyclopropane-1,9′-pyrrolo[1,2-a]azocin]-6′-yl)carbamoyl)benzo[b]thiophen-5-yl)methyl)phosphoryl)bis (oxy))bis(ethane-2,1-diyl))bis(2,2-dimethylpropane-thioate)], for which the IC50 is over 3 µM on pY641-STAT6 in PBMC (setting [1]) and under 0.1 µM at pY705-STAT3 in PBMC (setting [2]).

With `CCCOC(=O)[C@H](C)NP(=O)(Cc1ccc2ccc(C(=O)N[C@H]3CCCC[C@H]4CC[C@@H](C(=O)N5CC(c6ccccc6)CC56CC6)N4C3=O)cc2c1)Oc1ccccc1` (stereo partly drawn) [Compound 421, propyl (((7-(((3S,6S,10aS)-5-oxo-3-(6-phenyl-4-azaspiro[2.4]heptane-4-carbonyl)decahydropyrrolo[1,2-a]azocin-6-yl)carbamoyl)naphthalen-2-yl)methyl)(phenoxy)phosphoryl)-L-alaninate], the IC50 at pY641-STAT6 in PBMC (STAT6, PBMC, Table 115) was 0.1 to 1 µM; on pY705-STAT3 in PBMC (setting [3]), over 3 µM.
